Test system: HBV
Test: HBV-DNA antiviral assay using HepG2.117 cells (intracellular HBV DNA by qPCR)
Type: cell-based, genotype D HBV
Conditions: HBV DNA inhibition, 3 days incubation, 2% DMSO
Summary of the method: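 HepG2.117 cells (stable genotype D HBV, Tet-off) seeded without doxycycline, treated next day with 9-point 4-fold dilutions in 2% DMSO for 3 days at 37° C. Intracellular HBV DNA quantified by qPCR against a standard curve; viability by CellTiter-Glo ATP. EC50, EC90, CC50 from variable-slope dose-response fits versus DMSO control.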

`Cn1nnc(-c2ccc(-n3c(=O)c4c(n5ncc(Cc6ccccc6)c35)CN(C(=O)c3ccc(Br)c(Cl)c3)CC4)cc2)n1` [Compound 10, 5-benzyl-12-(4-bromo-3-chloro-benzoyl)-7-[4-(2-methyltetrazol-5-yl)phenyl]-2,3,7,12-tetrazatricyclo[7.4.0.0^2,6]trideca-1(9),3,5-trien-8-one] and `CNC(=O)c1ccc(-n2c(=O)c3c(n4ncc(CC5CCCC5)c24)CN(C(=O)c2ccc(Br)c(Cl)c2)CC3)cc1` [Compound 11, 4-[12-(4-bromo-3-chloro-benzoyl)-5-(cyclopentylmethyl)-8-oxo-2,3,7,12-tetrazatricyclo[7.4.0.0^2,6]trideca-1(9),3,5-trien-7-yl]-N-methyl-benzamide] cannot be ordered by EC50: < 50 nM for the first, < 50 nM for the second.

Same assay, conditions: Hepatitis B virus, 72 h, HBV DNA inhibition, 3 days incubation, 2% DMSO

First: C[C@H]1Cc2c(n3ncc(CC4CCC4)c3n(-c3ccc(-c4nncn4C)cc3)c2=O)CN1C(=O)c1ccc(Br)c(C(F)(F)F)c1 (stereo in doubt) [Compound 45b, rac-(11S)-12-[4-bromo-3-(trifluoromethyl)benzoyl]-5-(cyclobutylmethyl)-11-methyl-7-[4-(4-methyl-1,2,4-triazol-3-yl)phenyl]-2,3,7,12-tetrazatricyclo[7.4.0.0^2,6]trideca-1(9),3,5-trien-8-one]
Second: C[C@@H]1Cc2c(n3ncc(CC4CCC4)c3n(-c3ccc(-c4nncn4C)cc3)c2=O)CN1C(=O)c1ccc(Br)c(Cl)c1 (stereo in doubt) [Compound 48a, rac-(11R)-12-(4-bromo-3-chloro-benzoyl)-5-(cyclobutylmethyl)-11-methyl-7-[4-(4-methyl-1,2,4-triazol-3-yl)phenyl]-2,3,7,12-tetrazatricyclo[7.4.0.0^2,6]trideca-1(9),3,5-trien-8-one]
The EC50 of the first is higher: 50 to 500 nM for the first, < 50 nM for the second. The second is the more potent here.

`Cc1cnn(-c2ccc(-n3c(=O)c4c(n5ncc(Cc6ccccc6)c35)CN(C(=O)c3ccc(Br)c(Cl)c3)CC4)cc2)c1` [Compound 7, 5-benzyl-12-(4-bromo-3-chloro-benzoyl)-7-[4-(4-methylpyrazol-1-yl)phenyl]-2,3,7,12-tetrazatricyclo[7.4.0.0^2,6]trideca-1(9),3,5-trien-8-one] and `CNC(=O)c1ccc(-n2c(=O)c3c(n4ncc(Cc5ccccc5)c24)CN(C(=O)c2ccc(Br)c(C)c2)CC3)cc1` [Compound 2, 4-[5-benzyl-12-(4-bromo-3-methyl-benzoyl)-8-oxo-2,3,7,12-tetrazatricyclo[7.4.0.0″2,6]trideca-1(9),3,5-trien-7-yl]-N-methyl-benzamide] cannot be ordered by EC50: < 50 nM for the first, < 50 nM for the second.

`CNC(=O)c1ccc(-n2c(=O)c3c(n4ncc(CC5CCC5)c24)CN(C(=O)c2ccc(Br)c(Cl)c2)CC3)cc1` [Compound 14, 4-[12-(4-bromo-3-chloro-benzoyl)-5-(cyclobutylmethyl)-8-oxo-2,3,7,12-tetrazatricyclo[7.4.0.0^2,6]trideca-1(9),3,5-trien-7-yl]-N-methyl-benzamide] and `CNC(=O)c1ccc(-n2c(=O)c3c(n4ncc(CC5CC5)c24)CN(C(=O)c2ccc(Br)c(Cl)c2)[C@@H](C)C3)cc1` (stereo in doubt) [Compound 22b, N-methyl-4-[rac-(11S)-12-[4-bromo-3-chlorobenzoyl]-5-(cyclopropylmethyl)-11-methyl-8-oxo-2,3,7,12-tetrazatricyclo[7.4.0.0^2,6]trideca-1(9),3,5-trien-7-yl]benzamide] cannot be ordered by EC50: < 50 nM for the first, < 50 nM for the second.

First: CNc1n[nH]c2cc(-n3c(=O)c4c(n5ncc(Cc6ccccc6)c35)CN(C(=O)c3ccc(Br)c(C(F)(F)F)c3)CC4)ccc12 [Compound 26, 5-benzyl-12-[4-bromo-3-(trifluoromethyl)benzoyl]-7-[3-(methylamino)-1H-indazol-6-yl]-2,3,7,12-tetrazatricyclo[7.4.0.0^2,6]trideca-1(9),3,5-trien-8-one]
Second: Cc1nn[nH]c1-c1ccc(-n2c(=O)c3c(n4ncc(Cc5ccccc5)c24)CN(C(=O)c2ccc(Br)c(C(F)(F)F)c2)[C@@H](C)C3)cc1 (stereo in doubt) [Compound 80b, rac-(11S)-5-benzyl-12-[4-bromo-3-(trifluoromethyl)benzoyl]-11-methyl-7-[4-(4-methyl-1H-triazol-5-yl)phenyl]-2,3,7,12 tetrazatricyclo[7.4.0.0^2,6]trideca-1(9),3,5-trien-8-one]
The EC50 of the first is lower: < 50 nM for the first, 50 to 500 nM for the second. The first is the more potent here.

First: CNc1n[nH]c2cc(-n3c(=O)c4c(n5ncc(CC(C)C)c35)CN(C(=O)c3ccc(Cl)c(C(F)(F)F)c3)[C@@H](C)C4)ccc12 (stereo in doubt) [Compound 56b, rac-(11S)-12-[4-chloro-3-(trifluoromethyl)benzoyl]-5-isobutyl-11-methyl-7-[3-(methylamino)-1H-indazol-6-yl]-2,3,7,12-tetrazatricyclo[7.4.0.0^2,6]trideca-1(9),3,5-trien-8-one]
Second: CC(C)Cc1cnn2c3c(c(=O)n(-c4ccc(-c5nncn5C)cc4)c12)C[C@@H](C)N(C(=O)c1ccc(Cl)c(C(F)(F)F)c1)C3 (stereo in doubt) [Compound 67a, rac-(11R)-12-[4-chloro-3-(trifluoromethyl)benzoyl]-5-isobutyl-11-methyl-7-[4-(4-methyl-1,2,4-triazol-3-yl)phenyl]-2,3,7,12-tetrazatricyclo[7.4.0.0^2,6]trideca-1(9),3,5-trien-8-one]
The EC50 of the first is higher: 50 to 500 nM for the first, < 50 nM for the second.

`Cc1nnnn1-c1ccc(-n2c(=O)c3c(n4ncc(Cc5ccccc5)c24)CN(C(=O)c2ccc(Br)c(C(F)(F)F)c2)[C@H](C)C3)cc1` (stereo in doubt) [Compound 46a, rac-(11R)-5-benzyl-12-[4-bromo-3-(trifluoromethyl)benzoyl]-11-methyl-7-[4-(5-methyltetrazol-1-yl)phenyl]-2,3,7,12-tetrazatricyclo[7.4.0.0^2,6]trideca-1(9),3,5-trien-8-one] and `C[C@@H]1Cc2c(n3ncc(Cc4ccccc4)c3n(-c3ccc(-c4nn(C)c(=O)[nH]4)cc3)c2=O)CN1C(=O)c1ccc(Br)c(C(F)(F)F)c1` (stereo in doubt) [Compound 82a, rac-(11R)-5-benzyl-12-[4-bromo-3-(trifluoromethyl)benzoyl]-11-methyl-7-[4-(1-methyl-5-oxo-4H-1,2,4-triazol-3-yl)phenyl]-2,3,7,12-tetrazatricyclo[7.4.0.0^2,6]trideca-1(9),3,5-trien-8-one] cannot be ordered by EC50: < 50 nM for the first, < 50 nM for the second.

Compared with `Cc1nnc(-c2ccc(-n3c(=O)c4c(n5ncc(CC(C)C)c35)CN(C(=O)c3ccc(Br)c(Cl)c3)[C@@H](C)C4)cc2)[nH]1` (stereo in doubt) [Compound 66b, rac-(11S)-12-(4-bromo-3-chloro-benzoyl)-5-isobutyl-11-methyl-7-[4-(5-methyl-4H-1,2,4-triazol-3-yl)phenyl]-2,3,7,12-tetrazatricyclo[7.4.0.0^2,6]trideca-1(9),3,5-trien-8-one], `Cc1nn[nH]c1-c1ccc(-n2c(=O)c3c(n4ncc(CC(C)C)c24)CN(C(=O)c2ccc(Br)c(C(F)(F)F)c2)[C@H](C)C3)cc1` (stereo in doubt) [Compound 62a, rac-(11R)-12-[4-bromo-3-(trifluoromethyl)benzoyl]-5-isobutyl-11-methyl-7-[4-(4-methyl-1H-triazol-5-yl)phenyl]-2,3,7,12-tetrazatricyclo[7.4.0.0^2,6]trideca-1(9),3,5-trien-8-one] is lower in EC50: 50 to 500 nM for the first, < 50 nM for the second. The second is the more potent here.

Compared with `CC(C)Cc1cnn2c3c(c(=O)n(-c4ccc5c(c4)ncn5C)c12)C[C@@H](C)N(C(=O)c1ccc(Br)c(C(F)(F)F)c1)C3` (stereo in doubt) [Compound 86a, rac-(11R)-12-[4-bromo-3-(trifluoromethyl)benzoyl]-5-isobutyl-11-methyl-7-(1-methylbenzimidazol-5-yl)-2,3,7,12-tetrazatricyclo[7.4.0.0^2,6]trideca-1(9),3,5-trien-8-one], `CC(C)Cc1cnn2c3c(c(=O)n(-c4ccc(-c5cnnn5C)cc4)c12)C[C@H](C)N(C(=O)c1ccc(Br)c(C(F)(F)F)c1)C3` (stereo in doubt) [Compound 102b, rac-(11S)-12-[4-bromo-3-(trifluoromethyl)benzoyl]-5-isobutyl-11-methyl-7-[4-(3-methyltriazol-4-yl)phenyl]-2,3,7,12-tetrazatricyclo[7.4.0.0^2,6]trideca-1(9),3,5-trien-8-one] is higher in EC50: < 50 nM for the first, 50 to 500 nM for the second. The first is the more potent here.

`C[C@H]1Cc2c(n3ncc(CC4CC4)c3n(-c3ccc(-c4nc(=O)on4C)cc3)c2=O)CN1C(=O)c1ccc(Br)c(C(F)(F)F)c1` (stereo in doubt) [Compound 93b, 2-methyl-3-[4-[rac-(11S)-12-[4-bromo-3-(trifluoromethyl)benzoyl]-5-(cyclopropylmethyl)-11-methyl-8-oxo-2,3,7,12-tetrazatricyclo[7.4.0.0^2,6]trideca-1(9),3,5-trien-7-yl]phenyl]-1,2,4-oxadiazol-5-one] and `CC(C)Cc1cnn2c3c(c(=O)n(-c4ccc(-c5nc(=O)on5C)cc4)c12)C[C@@H](C)N(C(=O)c1ccc(Br)c(C(F)(F)F)c1)C3` (stereo in doubt) [Compound 94a, 2-methyl-3-[4-[rac-(11R)-12-[4-bromo-3-(trifluoromethyl)benzoyl]-5-isobutyl-11-methyl-8-oxo-2,3,7,12-tetrazatricyclo[7.4.0.0^2,6]trideca-1(9),3,5-trien-7-yl]phenyl]-1,2,4-oxadiazol-5-one] cannot be ordered by EC50: < 50 nM for the first, < 50 nM for the second.

`CNC(=O)c1cnc(-n2c(=O)c3c(n4ncc(CC(C)C)c24)CN(C(=O)c2ccc(Br)c(C(F)(F)F)c2)[C@@H](C)C3)nc1` (stereo in doubt) [Compound 85b, N-methyl-2-[rac-(11S)-12-[4-bromo-3-(trifluoromethyl)benzoyl]-5-isobutyl-11-methyl-8-oxo-2,3,7,12-tetrazatricyclo[7.4.0.0^2,6]trideca-1(9),3,5-trien-7-yl]pyrimidine-5-carboxamide] and `CNC(=O)c1ccc(-n2c(=O)c3c(n4ncc(Cc5ccsc5)c24)CN(C(=O)c2ccc(Br)c(Cl)c2)CC3)cc1` [Compound 18, 4-[12-(4-bromo-3-chloro-benzoyl)-8-oxo-5-(3-thienylmethyl)-2,3,7,12-tetrazatricyclo[7.4.0.0^2,6]trideca-1(9),3,5-trien-7-yl]-N-methyl-benzamide] cannot be ordered by EC50: < 50 nM for the first, < 50 nM for the second.
